Measurements from patent publication US4112228A, “7-(D-α-Hydroxy-2-arylacetamido)-3-(2-carboxyalkyl-2,3-dihydro-s-tri azolo-[4,3-b]pyridazin-3-on-6-ylthiomethyl)-3-cephem-4-carboxylic acids and derivatives” (priority 1977, dated 1978).
Values after ≈ are worked out from the molar mass of the structure shown.

Tests used:
[1] = test system: B. anthracis; assay: microbe, parasite or virus in culture; assay type: cell-based; conditions: Bacillus anthracis
[2] = test system: Enterob. cloacae; assay: MIC by Steers' agar dilution method
[3] = test system: P. inconstans; assay: MIC by Steers' agar dilution method; conditions: Providencia alcalifaciens
[4] = test system: Klebsiella sp.; assay: MIC by Steers' agar dilution method
[5] = test system: Pr. mirabilis; assay: MIC by Steers' agar dilution method; conditions: Proteus mirabilis
[6] = test system: S. aureus; assay: MIC by Steers' agar dilution method; assay type: cell-based; conditions: Staphylococcus aureus

Cn1nnnc1SCC1=C(C(=O)O)N2C(=O)[C@@H](NC(=O)[C@H](O)c3ccccc3)[C@H]2SC1 [Cefamandole, cefamandole, reference compound]
MIC ([1]; Ba-3 A9504, HIA, Table 4): 0.2 µg/mL (≈ 0.432 µM) | MIC ([1]; Ba-3 A9504, MHA, Table 4): 0.4 µg/mL (≈ 0.865 µM) | MIC ([1]; Ba-3 A9504, NA, Table 4): 0.4 µg/mL (≈ 0.865 µM) | MIC ([1]; MHA, Example 10): 0.4 µg/mL (≈ 0.865 µM) | MIC ([2]; A9656, MHA, Table 1): 3.1 µg/mL (≈ 6.7 µM) | MIC ([2]; El-1 A9656, HIA, Table 4): 3.1 µg/mL (≈ 6.7 µM) | MIC ([2]; El-1 A9656, MHA, Table 3): 3.1 µg/mL (≈ 6.7 µM) | MIC ([2]; El-1 A9656, MHA, Table 4): 3.1 µg/mL (≈ 6.7 µM) | MIC ([2]; El-1 A9656, NA, Table 4): 6.3 µg/mL (≈ 13.6 µM) | MIC ([2]; El-2 A20364 (β-lactamase), HIA, Table 4): 100 µg/mL (≈ 216 µM) | MIC ([2]; El-2 A20364 (β-lactamase), MHA, Table 4): 50 µg/mL (≈ 108 µM) | MIC ([2]; El-2 A20364 (β-lactamase), NA, Table 4): 6.3 µg/mL (≈ 13.6 µM) | MIC ([2]; El-2 A20364, MHA, Table 3): 3.1 µg/mL (≈ 6.7 µM) | MIC ([2]; El-4 A20650, MHA, Table 3): 1.6 µg/mL (≈ 3.46 µM) | MIC ([2]; El-6 A9657, MHA, Table 3): 0.8 µg/mL (≈ 1.73 µM) | MIC ([2]; El-7 A9659, MHA, Table 3): 0.8 µg/mL (≈ 1.73 µM) | MIC ([2]; El-8 A9655, MHA, Table 3): 1.6 µg/mL (≈ 3.46 µM) | MIC ([2]; El-9 A20021, MHA, Table 3): 100 µg/mL (≈ 216 µM) | MIC ([2]; El-11 A20344 (β-lactamase), HIA, Table 4): > 100 µg/mL | MIC ([2]; El-11 A20344 (β-lactamase), MHA, Table 4): > 100 µg/mL | MIC ([2]; El-11 A20344 (β-lactamase), NA, Table 4): > 100 µg/mL | MIC ([2]; El-11 A20344, MHA, Table 3): > 100 µg/mL | MIC ([2]; El-12 A21006, MHA, Table 3): 3.1 µg/mL (≈ 6.7 µM) | MIC ([2]; El-14 A20953, MHA, Table 3): 3.1 µg/mL (≈ 6.7 µM) | MIC ([2]; MHA, Example 10): 3.1 µg/mL (≈ 6.7 µM) | MIC [3]: 0.8 µg/mL (≈ 1.73 µM) | MIC ([4]; Kx-2 A9662, MHA, Table 3): 1.6 µg/mL (≈ 3.46 µM) | MIC ([4]; Kx-3 A20346 (β-lactamase), HIA, Table 4): 0.4 µg/mL (≈ 0.865 µM) | MIC ([4]; Kx-3 A20346 (β-lactamase), MHA, Table 4): 0.4 µg/mL (≈ 0.865 µM) | MIC ([4]; Kx-3 A20346 (β-lactamase), NA, Table 4): 0.4 µg/mL (≈ 0.865 µM) | MIC ([4]; Kx-3 A20346, MHA, Table 3): 0.8 µg/mL (≈ 1.73 µM) | MIC ([5]; A9554, MHA, Table 1): 0.4 µg/mL (≈ 0.865 µM) | MIC ([5]; Pm-1 A9554, HIA, Table 4): 0.4 µg/mL (≈ 0.865 µM) | MIC ([5]; Pm-1 A9554, NA, Table 4): 0.2 µg/mL (≈ 0.432 µM) | MIC ([5]; Pm-2 A9900, HIA, Table 4): 0.4 µg/mL (≈ 0.865 µM) | MIC ([5]; Pm-2 A9900, MHA, Table 3): 1.6 µg/mL (≈ 3.46 µM) | MIC ([5]; Pm-2 A9900, MHA, Table 4): 0.8 µg/mL (≈ 1.73 µM) | MIC ([5]; Pm-2 A9900, NA, Table 4): 0.4 µg/mL (≈ 0.865 µM) | MIC ([5]; Pm-3 A20119, MHA, Table 3): 3.1 µg/mL (≈ 6.7 µM) | MIC ([5]; Pm-4 A20454, MHA, Table 3): 1.6 µg/mL (≈ 3.46 µM) | MIC ([5]; Pm-6 A21222, MHA, Table 3): 1.6 µg/mL (≈ 3.46 µM) | MIC ([5]; strain not named (2nd of 2), MHA, Example 10): 0.2 µg/mL (≈ 0.432 µM) | MIC ([6]; A9497, MHA, Table 1): 0.05 µg/mL (≈ 0.108 µM) | MIC ([6]; BX-1633, MHA, Example 10): 0.4 µg/mL (≈ 0.865 µM) | MIC ([6]; BX-1633 A9606, MHA, Table 1): 0.1 µg/mL (≈ 0.216 µM) | MIC ([6]; Sa-2 Smith A9537, HIA, Table 4): 0.2 µg/mL (≈ 0.432 µM) | MIC ([6]; Sa-2 Smith A9537, MHA, Table 2): 0.2 µg/mL (≈ 0.432 µM) | MIC ([6]; Sa-2 Smith A9537, MHA, Table 4): 0.2 µg/mL (≈ 0.432 µM) | MIC ([6]; Sa-2 Smith A9537, NA, Table 4): 0.2 µg/mL (≈ 0.432 µM) | MIC ([6]; Sa-3 No. 193, MHA, Table 2): 0.2 µg/mL (≈ 0.432 µM) | MIC ([6]; Sa-8, MHA, Table 2): 0.2 µg/mL (≈ 0.432 µM) | MIC ([6]; Sa-9 No. 193, MHA, Table 2): 0.2 µg/mL (≈ 0.432 µM) | MIC ([6]; Sa-10 A20239, MHA, Table 2): 0.4 µg/mL (≈ 0.865 µM) | MIC ([6]; Sa-11 BX-1633 A9606 (β-lactamase), HIA, Table 4): 0.4 µg/mL (≈ 0.865 µM) | MIC ([6]; Sa-11 BX-1633 A9606 (β-lactamase), MHA, Table 4): 0.4 µg/mL (≈ 0.865 µM) | MIC ([6]; Sa-11 BX-1633 A9606 (β-lactamase), NA, Table 4): 0.4 µg/mL (≈ 0.865 µM) | MIC ([6]; Sa-11 BX-1633 A9606, MHA, Table 2): 0.2 µg/mL (≈ 0.432 µM) | MIC ([6]; Sa-12 A9497, MHA, Table 2): 0.1 µg/mL (≈ 0.216 µM) | MIC ([6]; Sa-29 No. 193, MHA, Table 2): 0.8 µg/mL (≈ 1.73 µM) | MIC ([6]; Sa-33 Terajima, MHA, Table 2): 0.0125 µg/mL (≈ 0.027 µM) | MIC ([6]; Sa-34 A15092, MHA, Table 2): 0.2 µg/mL (≈ 0.432 µM) | MIC ([6]; Sa-35 A15094, MHA, Table 2): 0.4 µg/mL (≈ 0.865 µM) | MIC ([6]; Sa-36 Russell, MHA, Table 2): 0.4 µg/mL (≈ 0.865 µM) | MIC ([6]; Sa-37 A9524, MHA, Table 2): 0.8 µg/mL (≈ 1.73 µM) | MIC ([6]; Sa-38 A9534, MHA, Table 2): 0.2 µg/mL (≈ 0.432 µM) | MIC ([6]; Sa-39 A9578, MHA, Table 2): 0.4 µg/mL (≈ 0.865 µM)
